Marks after values point to notes of the source that are not given here. Where a SMILES comes first, the peptide text is derived from it. Where no end group is shown, it is not given here. [ ]: non-standard residue; d: D form. The star is where a group is joined. Fmoc = O=C(OCC1c2ccccc2-c2ccccc21)*
Legend:
[1] = Peptide stability in FBS by residual IP3 production; type: in vitro ADME, bovine; conditions: peptide 1 μM in 100% FBS, 37 °C, 0, 3, 6, 12, 24, 48, 72 h; residual activity read as IP3 production ([3H]-inositol) in HEK293 cells expressing GALR2; mean ± S.E., at least three independent experiments
Protocol: (§1) To investigate the effects of the modifications on proteolytic susceptibility, the functional activity of peptides that were incubated in 100% serum at 37 °C for 0, 3, 6, 12, 24, 48, and 72 h was determined via inositol 1,4,5-triphosphate (IP3) production in GALR2-expressing cells (Fig. 4A–C and Table 3). […] In addition, dAla4 and dGln14 substitutions contribute to longer longevity of the peptide in serum. In an additional experiment, we examined the degradation rates of the Qu mutant, as well as the Qu mutant with an N-terminal modification and/or dAla4 and dGln14 substitutions.
(§2) Figure 4 Stability of SPX mutants in the presence of FBS (A) Qu analogs in FBS (B) and human serum (C). Potency of Qu mutants toward GALR2 (D) and GALR3 (E). For stability of SPX mutants, peptides (1 μM) were incubated in serum for 0, 3, 6, 12, 24, 48, and 72 hrs. The remaining activities of the peptides were determined by measuring IP3 production by HEK293 cells that express GALR2 after the indicated times. IP3 production was expressed as percent change, where 100% indicates IP3 production by WT SPX incubated in FBS or human serum for 0 h. For potency of Qu mutants toward GALR2 and GALR3, the SRE-luc reporter vector and plasmid containing human GALR2 or GALR3 were transfected into HEK293 cells that stably expressed Gqi protein. Cells were then treated with increasing concentrations of mutant peptides, and the receptor activities were determined using the SRE-luc reporter system.
(§3) To evaluate the stability of SPX and its analogs in FBS or human serum, peptides were incubated at an initial concentration of 1 μM in 100% serum at 37 °C for 0, 3, 6, 12, 24, 48, and 72 hours. Residual peptide activity was then assessed by measuring IP3 in HEK293 cells expressing GALR2. For the IP3 assay, cells were seeded in 12-well plates at a density of 2.5 × 10^5 cells per well, and then the next day, cells were transiently transfected with 1 μg/well of plasmid containing GALR2 using the Lipofectamine 2000 (Invitrogen) transfection reagent. The day following transfection, cells were incubated in M199 media containing 1% FBS, 1% L-glutamine, 1% penicillin/streptomycin, and 1 μCi/well of myo-^3H inositol for 20 h. After a 30-min incubation in buffer A (140 mM NaCl, 20 mM Hepes, 4 mM KCl, 8 mM D-glucose, 1 mM MgCl2, 1 mM CaCl2, 1 mg/ml free fatty acid bovine serum albumin (BSA), and 10 mM LiCl at pH 7.2), cells were treated with the agonist for 40 min at 37 °C. Media was removed, and the reactions were terminated by addition of 1 ml of 10 mM cold formic acid to each well. The plates were stored at 4 °C for 30 min, and the extracts were then transferred into 6-ml plastic tubes containing 500 μl AG1–8X anion exchange columns (BIO-RAD). The tubes were gently mixed with a vortexer, and the supernatants were removed by aspiration. Two washes with 1 ml of distilled water were performed followed by two additional washes with 60 mM ammonium formate/5mM sodium tetraborate. Tritiated inositol was separated from the column by elution with 1 ml of 1 M ammonium formate/0.1 M formic acid, and 800 μl from the elution were taken from each tube and transferred into 6-ml scintillation vials. Then, 2 ml of scintillation cocktail solution (Ultima Gold^TM, Perkin Elmer, Waltham MA, USA) was added to each sample. The radioactivity of [^3H]-myo-inositol samples was measured using a TRI carb 3100TR liquid scintillation analyzer (Packard).

[2] = Peptide stability in human serum by residual IP3 production; type: in vitro ADME; conditions: peptide 1 μM in 100% human serum, 37 °C, 0, 3, 6, 12, 24, 48, 72 h; residual activity read as IP3 production ([3H]-inositol) in HEK293 cells expressing GALR2; mean ± S.E., at least three independent experiments
Protocol: as §1, §2, §3

[3] = target: T1, human GALR2 (Homo sapiens, UniProt O43603); assay: SRE-luc reporter assay, GALR2;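 further: luciferase activity read in cell lysates after exposure to rising peptide concentrations, EC50 being the agonist level giving half-maximal stimulation from a sigmoidal nonlinear regression fit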; type: cell-based; conditions: HEK293-Gqi cells transfected with SRE-luc and human GALR2; 6 h ligand treatment; mean ± S.E. of at least three independent experiments; NM = not measurable; read-out: GALR2 EC50
T1 construct: host or cells: HEK293 cells stably expressing Gαqi
T1 sequence (O43603 1-387): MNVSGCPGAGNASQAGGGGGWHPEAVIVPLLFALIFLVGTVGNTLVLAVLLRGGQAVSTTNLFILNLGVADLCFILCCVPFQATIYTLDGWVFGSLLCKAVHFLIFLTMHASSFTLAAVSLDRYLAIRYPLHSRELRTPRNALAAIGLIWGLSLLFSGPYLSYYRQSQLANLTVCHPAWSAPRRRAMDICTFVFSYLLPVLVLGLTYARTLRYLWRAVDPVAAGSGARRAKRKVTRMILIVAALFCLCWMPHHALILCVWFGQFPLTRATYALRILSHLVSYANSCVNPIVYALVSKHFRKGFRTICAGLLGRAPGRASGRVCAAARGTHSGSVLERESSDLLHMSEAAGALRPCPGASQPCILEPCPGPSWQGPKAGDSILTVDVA
Protocol: (§4) The generated mutant SPX peptides were incubated with cells expressing GALR2 and GALR3. […] The activities of the receptors were traced using the serum-response element-driven luciferase (SRE-luc) assay system.
(§5) The SRE-luc reporter vector and plasmid containing human GALR1, GALR2, or GALR3 were transfected into HEK293 cells that stably expressed Gqi protein. Cells were then treated with increasing concentrations of mutant peptides, and the receptor activities were determined using the SRE-luc reporter system.
(§6) HEK293 cells stably expressing Gαqi, which mediates Gαi-coupled receptor activation by stimulating Gαq-dependent signaling pathways[59], were maintained in Dulbecco’s modified Eagle’s medium (DMEM) supplemented with 10% FBS, 100 U/ml penicillin G, and 100 μg/ml streptomycin (Invitrogen). Cells were seeded in 48-well plates at a density of 2 × 10^4 cells per well, one day before transfection. A mixture containing 75 ng of the SRE-luc reporter construct, 75 ng of expression plasmid, and 2 μl of Effectene reagent (Qiagen, Chatsworth, CA, USA) was prepared and added to each well according to the manufacturer’s instructions. Cells were then maintained in serum-free DMEM for 16–18 h before treatment with the ligands. Approximately 48 h after transfection, cells were treated with the respective ligands for 6 h. Cells were lysed by the addition of 100 μl lysis buffer. The luciferase activity in 50 μl of cell extract was determined by a luciferase assay system according to the standard protocol for the Synergy 2 Multi-Mode Microplate Reader (BioTek, Winooski, VT, USA).
(§7) For in vitro studies data analysis was performed by nonlinear regression with a sigmoidal dose-response. The agonist concentrations that induced half-maximal stimulation (EC50) or half-maximal inhibition of binding (IC50) were calculated with GraphPad PRISM4 software (GraphPad Software Inc., San Diego, CA, USA). […] All data are presented as mean ± S.E. of at least three independent experiments and a P value of P < 0.05 was considered statistically significant.

[4] = target: T2, human GALR3 (Homo sapiens, UniProt O60755); assay: SRE-luc reporter assay, GALR3;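 further: luciferase activity read in cell lysates across rising peptide concentrations, EC50 being the agonist concentration giving half-maximal stimulation from a sigmoidal nonlinear fit, Gαqi routing Gi-coupled receptor signaling through Gq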; type: cell-based; conditions: HEK293-Gqi cells transfected with SRE-luc and human GALR3; 6 h ligand treatment; mean ± S.E. of at least three independent experiments; NM = not measurable; read-out: GALR3 EC50
T2 construct: host or cells: HEK293 cells stably expressing Gαqi
T2 sequence (O60755 1-368): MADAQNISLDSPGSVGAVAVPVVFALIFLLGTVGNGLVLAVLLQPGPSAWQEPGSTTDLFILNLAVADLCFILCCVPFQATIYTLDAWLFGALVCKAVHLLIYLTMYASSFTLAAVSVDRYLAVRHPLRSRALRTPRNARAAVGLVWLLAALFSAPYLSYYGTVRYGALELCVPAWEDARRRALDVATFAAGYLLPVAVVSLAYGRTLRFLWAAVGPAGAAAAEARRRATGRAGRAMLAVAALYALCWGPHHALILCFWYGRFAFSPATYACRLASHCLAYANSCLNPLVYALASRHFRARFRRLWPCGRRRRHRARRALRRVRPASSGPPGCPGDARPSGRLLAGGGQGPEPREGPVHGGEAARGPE
Protocol: as §4, §5, §6, §7

| Half-life activity (h) in FBS [1] | Half-life activity (h) in Human Serum [2] | EC50 [3] | EC50 [4] | Compound |
| --- | --- | --- | --- | --- |
| 6.1 ± 0.2 ^a h | 4.9 ± 0.1 ^a h |  |  | CC(C)C[C@H](NC(=O)[C@H](C)NC(=O)[C@H](C)NC(=O)[C@H](CC(N)=O)NC(=O)[C@@H]1CCCN1C(=O)[C@@H](NC(=O)[C@H](Cc1c[nH]c2ccccc12)NC(=O)[C@H](CC(N)=O)NC(=O)OCC1c2ccccc2-c2ccccc21)[C@@H](C)O)C(=O)N[C@@H](Cc1ccc(O)cc1)C(=O)N[C@@H](CC(C)C)C(=O)N[C@@H](Cc1ccccc1)C(=O)NCC(=O)N1CCC[C@H]1C(=O)N[C@@H](CCC(N)=O)C(N)=O [Fmoc-Qu] (Fmoc-NWTPNAALYLFGPQ-NH2) |
| 4.2 ± 0.1 ^a h | 2.9 ± 0.1 ^a h |  |  | CC(C)C[C@H](NC(=O)[C@H](C)NC(=O)[C@H](C)NC(=O)[C@H](CC(N)=O)NC(=O)[C@@H]1CCCN1C(=O)[C@@H](NC(=O)[C@H](Cc1c[nH]c2ccccc12)NC(=O)[C@H](N)CC(N)=O)[C@@H](C)O)C(=O)N[C@@H](Cc1ccc(O)cc1)C(=O)N[C@@H](CC(C)C)C(=O)N[C@@H](Cc1ccccc1)C(=O)NCC(=O)N1CCC[C@H]1C(=O)N[C@@H](CCC(N)=O)C(N)=O [dN1-Qu] (H-[dN]WTPNAALYLFGPQ-NH2) |
| 2.6 ± 0.2 h | 2.0 ± 0.2 h | 55 ± 9.24 nM | > 10 µM | NWTPNAALYLFGPQ-NH2 [N5A7F11P13(Qu)] |

Source: article PMC4764904 (Scientific Reports, 2016)
